Assay results from the NIST ThermoML archive (doi:10.1021/je049895b).

Assay: xn = mol fraction of the nth substance listed
Settings: 101.33 kPa, Liquid; for viscosity: Capillary tube (Ostwald / Ubbelohde) method

CCOC(=O)OCC [diethyl carbonate] + CC1CCCCC1
Settings | speed of sound, 293.15 K [m/s] | speed of sound, 298.15 K [m/s] | speed of sound, 303.15 K [m/s] | speed of sound, 308.15 K [m/s] | speed of sound, 313.15 K [m/s] | viscosity, 293.15 K [mPa·s] | viscosity, 298.15 K [mPa·s] | viscosity, 303.15 K [mPa·s] | viscosity, 308.15 K [mPa·s] | viscosity, 313.15 K [mPa·s]
x1 = 0.0473 | 1229 | 1207 | 1185 | 1164 | 1142 | 0.709 | 0.662 | 0.621 | 0.583 | 0.548
x1 = 0.0978 | 1222 | 1201 | 1179 | 1157 | 1136 | 0.692 | 0.647 | 0.607 | 0.57 | 0.537
x1 = 0.1985 | 1211 | 1189 | 1168 | 1146 | 1125 | 0.678 | 0.633 | 0.593 | 0.558 | 0.525
x1 = 0.2968 | 1203 | 1181 | 1160 | 1138 | 1117 | 0.67 | 0.627 | 0.588 | 0.553 | 0.521
x1 = 0.3924 | 1196 | 1175 | 1154 | 1132 | 1111 | 0.672 | 0.628 | 0.589 | 0.554 | 0.522
x1 = 0.4993 | 1192 | 1171 | 1149 | 1128 | 1107 | 0.68 | 0.635 | 0.596 | 0.561 | 0.529
x1 = 0.5999 | 1189 | 1168 | 1147 | 1126 | 1105 | 0.695 | 0.649 | 0.609 | 0.572 | 0.539
x1 = 0.6985 | 1189 | 1168 | 1147 | 1126 | 1106 | 0.709 | 0.663 | 0.622 | 0.584 | 0.55
x1 = 0.7988 | 1191 | 1170 | 1149 | 1128 | 1108 | 0.732 | 0.684 | 0.642 | 0.603 | 0.568
x1 = 0.8996 | 1194 | 1173 | 1152 | 1132 | 1112 | 0.762 | 0.711 | 0.666 | 0.625 | 0.588
x1 = 0.9509 | 1196 | 1175 | 1155 | 1134 | 1114 | 0.787 | 0.735 | 0.687 | 0.645 | 0.607
x1 = 1 | 1198 | 1177 | 1157 | 1136 | 1116 | 0.809 | 0.75 | 0.702 | 0.658 | 0.618
